Source: publication PMC3427755 (Organic & biomolecular chemistry, 2012)
“Also recorded” adds a separate entry of the source.

Assays:
B-Raf^WT = B-Raf^WT (Homo sapiens, UniProt P15056); assay: In vitro B-Raf kinase assay; format: biochemical
B-Raf^V600E = B-Raf^V600E (Homo sapiens, UniProt P15056, V600E); assay: In vitro B-Raf kinase assay; format: biochemical
[1] = system: A375 (B-Raf^V600E) malignant melanoma cells; assay: Anti-proliferation activity, A375 melanoma cells; format: cell-based, human
[2] = system: SW620 (B-Raf^WT) human colonic carcinoma cells; assay: Anti-proliferation activity, SW620 cells; format: cell-based; conditions: SW-620, read-out: Tumor growth inhibition rate SW620 (B-Raf)

Sequence of B-Raf^WT (P15056 433-726): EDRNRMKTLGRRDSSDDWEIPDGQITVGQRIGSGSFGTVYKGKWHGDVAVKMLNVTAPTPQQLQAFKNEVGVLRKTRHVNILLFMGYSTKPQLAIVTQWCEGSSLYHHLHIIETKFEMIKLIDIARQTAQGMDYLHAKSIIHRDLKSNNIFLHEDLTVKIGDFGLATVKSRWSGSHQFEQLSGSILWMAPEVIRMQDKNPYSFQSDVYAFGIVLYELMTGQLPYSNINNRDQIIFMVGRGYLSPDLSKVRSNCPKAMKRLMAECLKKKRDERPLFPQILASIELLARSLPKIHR
Sequence of B-Raf^V600E (P15056 433-726 V600E): as the sequence (P15056 433-726) above, with V168E counted along it

Question: Which IC50 (B-Raf^WT) does the source give for COc1ccc(-c2ccc(C=C3C(=O)NC(=S)NC3=O)o2)cc1 [Compound 22h, 5-[5-(4-methoxy-phenyl)-furan-2ylmethylene]-2-thioxo-dihydro-pyrimidine-4,6-dione] here?
Answer: Its IC50 is 3.69 µM.

Question: What about the IC50 (B-Raf^V600E) of the same compound?
Answer: The IC50 was 2.69 µM.

Question: What about the inhibition at 10 µM ([1]; Homo sapiens, A-375, read-out: Tumor growth inhibition rate A375(B-Raf^V600E)) of the same compound?
Answer: The inhibition at 10 µM was 94.4%.

Question: And the “Tumor growth inhibition rate A375(B-Raf^V600E)” value ([1]; [I]=10μM, 10 µM)?
Answer: Its value is “potent growth inhibition activity; also recorded: virtually complete growth inhibition”.

Question: What about the inhibition at 10 µM [2] of the same compound?
Answer: The inhibition at 10 µM was 13%.
